Test results: patent US20230338378A1, “Methods of Administering Myosin Inhibitors” (MYOKARDIA, INC., priority 2022, published 2023)

Tests used:
[1] = target: CYP2C9 (Homo sapiens, UniProt P11712); assay: In vitro CYP inhibition; format: in vitro ADME; conditions: In Vitro Studies; clinically relevant concentrations
[2] = test system: adults with symptomatic NYHA class II and III obstructive HCM; assay: EXPLORER-HCM Phase 3, double-blind, randomized, placebo-controlled trial; format: in vivo, human
Method: The safety of MAVACAMTEN was evaluated in EXPLORER-HCM, a Phase 3, double-blind, randomized, placebo-controlled trial. Of the 251 adults with obstructive HCM, 123 patients were treated with MAVACAMTEN 2.5-15 mg daily and 128 were treated with placebo.
The efficacy of MAVACAMTEN was evaluated in EXPLORER-HCM (NCT-03470545) a Phase 3, double-blind, randomized, placebo-controlled, multicenter, international, parallel-group trial in 251 adults with symptomatic NYHA class II and III obstructive HCM, LVEF≥55%, and Valsalva LVOT peak gradient ≥50 mmHg at rest or with provocation.
Patients on dual therapy with beta blocker and calcium channel blocker treatment or monotherapy with disopyramide or ranolazine were excluded. Patients with a known infiltrative or storage disorder causing cardiac hypertrophy that mimicked obstructive HCM, such as Fabry disease, amyloidosis, or Noonan syndrome with left ventricular hypertrophy, were also excluded.
Patients were randomized in a 1:1 ratio to receive either a starting dose of 5 mg of MAVACAMTEN or placebo once daily for 30 weeks. Treatment assignment was stratified by baseline NYHA functional class, baseline use of beta blockers, and type of ergometer (treadmill or exercise bicycle).
All patients were initiated on MAVACAMTEN 5 mg (or matching placebo) once daily, and the dose was periodically adjusted to optimize patient response (decrease in LVOT gradient with Valsalva maneuver) and maintain LVEF≥50%. The dose was also informed by plasma concentrations of MAVACAMTEN.
The primary composite functional endpoint, assessed at 30 weeks, was defined as the proportion of patients who achieved either improvement of […] (pVO2) by ≥1.5 mL/kg/min plus improvement in NYHA class by at least 1 or improvement of pVO2 by ≥3.0 mL/kg/min plus no worsening in NYHA class.
The treatment effects of MAVACAMTEN on LVOT obstruction, functional capacity, and health status were assessed by change from baseline through Week 30 in post-exercise LVOT peak gradient, change in pVO2, proportion of patients with improvement in NYHA class, Kansas City Cardiomyopathy Questionnaire-23 (KCCQ-23) Clinical Summary Score (CSS), and Hypertrophic Cardiomyopathy Symptom Questionnaire (HCMSQ) Shortness of Breath (SoB) domain score.
Missing data were not imputed to summarize the baseline and change from baseline to Week 30 values. Difference in mean change from baseline between treatment groups was estimated using a mixed model for repeated measures.

[3] = test system: pregnant rats; assay: Embryo-fetal development study in pregnant rats; format: in vivo, rat
From the text: Plasma exposure (based on area under the concentration-time curve or AUC) at the no-effect dose for embryo-fetal development in rats is 0.3 times the exposure in humans at the MRHD.

[4] = test system: rat; assay: Rat in vivo micronucleus assay
[5] = Baseline to Week 30, vs Placebo

CYP2C9, sequence (P11712 whole entry): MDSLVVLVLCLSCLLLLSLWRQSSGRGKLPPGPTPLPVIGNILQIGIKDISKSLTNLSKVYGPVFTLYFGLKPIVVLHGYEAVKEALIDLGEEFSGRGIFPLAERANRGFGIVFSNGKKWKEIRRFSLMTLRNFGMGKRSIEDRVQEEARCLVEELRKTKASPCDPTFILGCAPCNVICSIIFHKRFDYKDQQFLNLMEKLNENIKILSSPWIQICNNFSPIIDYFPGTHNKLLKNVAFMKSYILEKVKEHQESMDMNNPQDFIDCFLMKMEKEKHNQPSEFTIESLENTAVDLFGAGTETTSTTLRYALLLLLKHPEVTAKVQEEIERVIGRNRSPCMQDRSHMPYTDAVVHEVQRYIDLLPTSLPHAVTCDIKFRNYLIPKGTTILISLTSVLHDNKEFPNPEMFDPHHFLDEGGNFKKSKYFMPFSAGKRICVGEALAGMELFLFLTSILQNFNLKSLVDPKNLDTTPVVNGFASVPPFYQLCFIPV

## CC(C)n1c(=O)cc(N[C@@H](C)c2ccccc2)[nH]c1=O [mavacamten, (S)-3-Isopropyl-6-((1-phenylethyl)amino)pyrimidine-2,4(1H,3H)-dione]
[1]
  inhibition of CYP2C9: not an inhibitor
[2]; 30 Weeks, N = 123
  Change from baseline pVO2 ≥1.5 mL/kg/min and decreased NYHA: 41 (33%)
  Change from baseline pVO2 ≥3 mL/kg/min and NYHA not increased: 29 (23%)
  Total responders (primary endpoint): 45 (37%)
[2]; 30 Weeks, vs Placebo
  Change from baseline pVO2 ≥1.5 mL/kg/min and decreased NYHA, Difference (95% CI): 19% (9, 30)
  Change from baseline pVO2 ≥3 mL/kg/min and NYHA not increased, Difference (95% CI): 13% (3, 22)
  Total responders, Difference (95% CI): 19% (9, 30)
[2]; Baseline to Week 30, N = 123
  Number (%) with NYHA Class improved ≥1: 80 (65%)
  Post-Exercise LVOT gradient, mean (SD) change: −47 (40) mmHg
  pVO2, mean (SD) change: 1.4 (3.1) mL/kg/min
[2]; [5]
  NYHA Class improved ≥1, Difference (95% CI): 34% (22%, 45%)
  Post-Exercise LVOT gradient, Difference (95% CI): −35 (−43, −28) mmHg
  pVO2, Difference (95% CI): 1.4 (0.6, 2.1) mL/kg/min
[2]; EXPLORER-HCM
  Syncope leading to discontinuation, patients: 0.8%
  patients in whom reductions in LVEF to <50% were asymptomatic: 3 of the 7
  patients who temporarily interrupted their dose due to LVEF<50%: Three
  patients with reversible reductions in LVEF to <50% while on treatment, n (%): 7 (6%)
[2]; EXPLORER-HCM, 2.5-15 mg daily
  Adverse reaction: dizziness, patients: 27%
  Adverse reaction: syncope, patients: 6%
[2]; Week 30
  mean (SD) change from baseline in Valsalva LVOT gradient: −49 (34) mmHg
  mean (SD) change from baseline in resting LVOT gradient: −39 (29) mmHg
  proportion of patients who met the primary endpoint: 37%
  secondary endpoints (post-exercise LVOT peak gradient, pVO2, NYHA class, KCCQ-23 CSS, HCMSQ SoB): greater improvement compared to the placebo group across all secondary endpoints
[2]; Week 30, vs Placebo
  HCMSQ SoB, Difference, LS Mean (95% CI): −2 (−2, −1)
  KCCQ-23 CSS, Difference, LS Mean (95% CI): 9 (5, 13)
[2]; Week 30 compared with baseline
  reduction in NT-proBNP greater than for placebo: 80%
[2]; all 7 patients
  LVEF following interruption in patients with LVEF <50%: LVEF recovered
[2]; all subgroups analyzed (FIG. 17)
  Subgroup analysis of the primary composite functional endpoint: consistently favored MAVACAMTEN across all subgroups analyzed
[2]; attenuated improvement in pVO2
  benefit in patients on background beta blocker therapy compared to those who were not: smaller
[2]; in vivo
  KCCQ-23 PL, Change from Baseline to Week 30, Mean (SD): 15 (17)
  KCCQ-23 TSS, Change from Baseline to Week 30, Mean (SD): 12 (15)
[2]; n = 99
  KCCQ-23 CSS, Change from Baseline to Week 30, Mean (SD): 14 (14)
[2]; n = 108
  HCMSQ SoB, Change from Baseline to Week 30, Mean (SD): −3 (3)
[2]; over the 30-week treatment period
  mean (SD) absolute change from baseline in LVEF: −4% (8)
[3]; pregnant rats, oral, period of organogenesis, high dose group (1.5 mg/kg/day)
  embryo-fetal findings: increases in post-implantation loss, decreases in mean fetal body weight, reductions in fetal ossification of bones, and fetal malformations (visceral and skeletal) were observed
[3]; rats
  Plasma exposure (AUC) at the no-effect dose for embryo-fetal development vs exposure in humans at the MRHD: 0.3 times
[4]
  genotoxicity: not genotoxic
